From patent US4520031A, “Method for reducing toxic effects of methyl-glyoxal bis-guanylhydrazone” (priority 1982, dated 1985)

Assay: Solubility of MGBG salts
Type: physicochemical
Text: It is necessary to administer MGBG in a salt form to assure solubility of drug in the administration of fluid such as 5% (w/v) dextrose in water. […] Available MGBG-salt complexes include but are not limited to the dihydrochloride (NSC-32946) and the diacetate (NSC-30689).

## CC(C=NNC(=N)N)=NNC(=N)N
  solubility relative to dihydrochloride or diacetate salts: not as soluble as the dihydrochloride or diacetate salts
